This note sets out measurements from ChEMBL document CHEMBL1145106, “The role of the side chain in determining relative delta- and kappa-affinity in C5'-substituted analogues of naltrindole” (J Med Chem, 2003).

Experiment [1] concerns the target T1, Delta-type opioid receptor (Homo sapiens, UniProt P41143). Description: Ability to displace [3H]DPDPE from human recombinant Opioid receptor delta 1 in CHO cells. It counts as cell-based.
In experiment [2] the target is T2, Mu-type opioid receptor (Homo sapiens, UniProt P35372). In words: Ability to displace [3H]DAMGO from human recombinant Opioid receptor mu 1 in CHO cells. It counts as cell-based.
T2 sequence (P35372 whole entry): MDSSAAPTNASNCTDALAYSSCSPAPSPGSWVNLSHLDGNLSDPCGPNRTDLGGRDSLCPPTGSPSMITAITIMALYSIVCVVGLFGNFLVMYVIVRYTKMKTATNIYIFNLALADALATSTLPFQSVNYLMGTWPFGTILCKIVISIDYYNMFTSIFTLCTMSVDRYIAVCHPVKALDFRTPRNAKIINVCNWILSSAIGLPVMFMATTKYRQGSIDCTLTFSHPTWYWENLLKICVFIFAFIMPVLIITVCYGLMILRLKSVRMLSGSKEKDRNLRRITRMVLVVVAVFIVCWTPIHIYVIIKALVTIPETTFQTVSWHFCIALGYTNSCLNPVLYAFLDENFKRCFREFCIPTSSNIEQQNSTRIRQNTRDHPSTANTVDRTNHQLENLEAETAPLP
For experiment [3], the target named is T3, Kappa-type opioid receptor (Homo sapiens, UniProt P41145). It counts as cell-based, CHO.
T3 sequence (P41145 whole entry): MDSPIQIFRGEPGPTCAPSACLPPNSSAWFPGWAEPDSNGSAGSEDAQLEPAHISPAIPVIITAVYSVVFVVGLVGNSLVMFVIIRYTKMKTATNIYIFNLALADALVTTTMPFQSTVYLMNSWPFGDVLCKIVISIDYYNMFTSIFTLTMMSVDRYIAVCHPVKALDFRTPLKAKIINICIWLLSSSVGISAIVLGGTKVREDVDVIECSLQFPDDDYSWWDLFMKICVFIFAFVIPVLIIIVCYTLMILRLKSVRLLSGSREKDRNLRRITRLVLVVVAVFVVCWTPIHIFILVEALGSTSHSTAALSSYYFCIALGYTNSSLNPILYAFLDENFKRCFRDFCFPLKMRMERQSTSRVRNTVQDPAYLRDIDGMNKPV
Description: Ability to displace [3H]U-69593 from human recombinant Opioid receptor kappa 1 in CHO cells
Experiment [4] has as its target T1, Delta-type opioid receptor. Conditions: CHO.
Description: Ability to displace DPDPE from human recombinant Opioid receptor delta 1 in CHO cells using [35S]- GTP-gamma S Assay
In experiment [5] the target is T3, Kappa-type opioid receptor. Conditions: CHO.
Description: Ability to displace U-69,593 from human recombinant Opioid receptor kappa 1 in CHO cells using [35S]- GTP-gamma S Assay
Experiment [6] deals with T2, Mu-type opioid receptor. Conditions: CHO.
Description: Ability to displace DAMGO from human recombinant Opioid receptor mu 1 in CHO cells using [35S]- GTP-gamma S Assay

Each structure is given as a SMILES string. pKi: −log10 of the molar value.

T1 sequence (P41143 whole entry): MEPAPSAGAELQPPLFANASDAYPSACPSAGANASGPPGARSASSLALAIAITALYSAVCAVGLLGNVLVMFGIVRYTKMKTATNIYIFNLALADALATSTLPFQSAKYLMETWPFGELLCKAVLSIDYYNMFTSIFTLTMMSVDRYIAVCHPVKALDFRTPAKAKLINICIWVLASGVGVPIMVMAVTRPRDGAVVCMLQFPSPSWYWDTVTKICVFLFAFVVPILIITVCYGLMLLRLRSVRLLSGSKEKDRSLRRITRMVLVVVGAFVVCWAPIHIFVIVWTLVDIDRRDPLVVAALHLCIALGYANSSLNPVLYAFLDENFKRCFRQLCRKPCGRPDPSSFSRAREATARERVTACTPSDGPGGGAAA

Take `COc1ccc(CNC(=O)c2ccc3[nH]c4c(c3c2)C[C@@]2(O)C3Cc5ccc(O)c6c5[C@@]2(CCN3CC2CC2)[C@H]4O6)cc1`: the pKi is 8.13 in experiment [1], 8.33 at Mu-type opioid receptor [2] and 8.68 in experiment [3]. Also, the Ke in experiment [4] worked out at 6.2 nM; in experiment [5], 0.28 nM; on Mu-type opioid receptor [6], 0.94 nM.
As to `O=C(NCCc1ccccc1)c1ccc2[nH]c3c(c2c1)C[C@@]1(O)C2Cc4ccc(O)c5c4[C@@]1(CCN2CC1CC1)[C@H]3O5`, the pKi in experiment [1] was 8.45; on Mu-type opioid receptor [2], 7.63; in experiment [3] it was 8.66. Moreover, the Ke in experiment [4] amounted to 1.21 nM; in experiment [5], 0.17 nM; at Mu-type opioid receptor [6], 2.7 nM.
Turning to `CCCCC/N=C(\N)Cc1ccc2[nH]c3c(c2c1)C[C@@]1(O)C2Cc4ccc(O)c5c4[C@@]1(CCN2CC1CC1)[C@H]3O5`, the Ke in experiment [4] was 3.83 nM; in experiment [5], 0.21 nM; on Mu-type opioid receptor [6], 5.61 nM.
As to `CCCC(=N)NCCc1ccc2[nH]c3c(c2c1)C[C@@]1(O)C2Cc4ccc(O)c5c4[C@@]1(CCN2CC1CC1)[C@H]3O5`, the results for the pKi (in experiment [1]; at Mu-type opioid receptor [2]; in experiment [3]) were 7.56, 7.39 and 9.60, respectively. The Ke in experiment [4] stood at 1.89 nM; in experiment [5], 0.18 nM; at Mu-type opioid receptor [6], 4.21 nM.
For the compound `CCCCCCCNC(=N)Cc1ccc2[nH]c3c(c2c1)C[C@@]1(O)C2Cc4ccc(O)c5c4[C@@]1(CCN2CC1CC1)[C@H]3O5`, the pKi was 8.13 in experiment [1], 7.25 at Mu-type opioid receptor [2] and 8.25 in experiment [3].
For the compound `CCC/N=C(\N)Cc1ccc2[nH]c3c(c2c1)C[C@@]1(O)C2Cc4ccc(O)c5c4[C@@]1(CCN2CC1CC1)[C@H]3O5`, the Ke in experiment [4] is 4.41 nM; in experiment [5], 0.05 nM; at Mu-type opioid receptor [6], 3.19 nM.
With `CCCCCCCNC(=O)c1ccc2[nH]c3c(c2c1)C[C@@]1(O)C2Cc4ccc(O)c5c4[C@@]1(CCN2CC1CC1)[C@H]3O5`, the negative-log Ki (pKi) in experiment [1] is 7.15; at Mu-type opioid receptor [2] it was 7.21; in experiment [3], 7.66. Besides, the Ke in experiment [4] came to 6.95 nM; in experiment [5] it was 0.29 nM; at Mu-type opioid receptor [6], 6.86 nM.
As for `CCCCCCNC(=O)NCCc1ccc2[nH]c3c(c2c1)C[C@@]1(O)C2Cc4ccc(O)c5c4[C@@]1(CCN2CC1CC1)[C@H]3O5`, the results for the pKi (in experiment [1]; on Mu-type opioid receptor [2]; in experiment [3]) were 8.65, 7.87 and 8.09, respectively. The Ke in experiment [4] was 1.04 nM; in experiment [5] it was 1.71 nM; at Mu-type opioid receptor [6], 1.79 nM.
Regarding `CCCCC(=O)NCCc1ccc2[nH]c3c(c2c1)C[C@@]1(O)C2Cc4ccc(O)c5c4[C@@]1(CCN2CC1CC1)[C@H]3O5`, the values for the pKi (in experiment [1]; at Mu-type opioid receptor [2]; in experiment [3]) were 8.12, 7.50 and 9.17, respectively. The Ke in experiment [4] was determined as 0.23 nM; in experiment [5], 0.46 nM; at Mu-type opioid receptor [6], 3.37 nM.
In the case of `CCCCC(=N)NCCc1ccc2[nH]c3c(c2c1)C[C@@]1(O)C2Cc4ccc(O)c5c4[C@@]1(CCN2CC1CC1)[C@H]3O5`, the pKi is 7.42 in experiment [1], 6.66 at Mu-type opioid receptor [2] and 9.52 in experiment [3]. Moreover, the values for the Ke (in experiment [4]; in experiment [5]; at Mu-type opioid receptor [6]) were 3.31 nM, 0.17 nM and 5.33 nM, respectively.
For the compound `CCC(=N)NCCc1ccc2[nH]c3c(c2c1)C[C@@]1(O)C2Cc4ccc(O)c5c4[C@@]1(CCN2CC1CC1)[C@H]3O5`, the pKi is 7.66 in experiment [1], 7.58 at Mu-type opioid receptor [2] and 9.55 in experiment [3]. The Ke in experiment [4] was found to be 1.77 nM; in experiment [5], 0.24 nM; on Mu-type opioid receptor [6], 4.7 nM.
Consider `O=C(NCc1ccccc1)c1ccc2[nH]c3c(c2c1)C[C@@]1(O)C2Cc4ccc(O)c5c4[C@@]1(CCN2CC1CC1)[C@H]3O5`, for which the values for the pKi (in experiment [1]; at Mu-type opioid receptor [2]; in experiment [3]) were 7.95, 7.36 and 7.99, respectively. The Ke in experiment [4] is 2.99 nM; in experiment [5], 0.73 nM; on Mu-type opioid receptor [6], 4.4 nM.
Consider `CCCCNC(=O)NCCc1ccc2[nH]c3c(c2c1)C[C@@]1(O)C2Cc4ccc(O)c5c4[C@@]1(CCN2CC1CC1)[C@H]3O5`, for which the pKi in experiment [1] was 8.59; on Mu-type opioid receptor [2], 8.32; in experiment [3] it was 8.20. Further, the Ke worked out at 0.53 nM in experiment [4], 1.52 nM in experiment [5] and 1.63 nM at Mu-type opioid receptor [6].
With `O=C(NCCCCc1ccccc1)c1ccc2[nH]c3c(c2c1)C[C@@]1(O)C2Cc4ccc(O)c5c4[C@@]1(CCN2CC1CC1)[C@H]3O5`, the pKi in experiment [1] is 7.23; on Mu-type opioid receptor [2], 7.43; in experiment [3] it was 8.21. Moreover, the results for the Ke (in experiment [4]; in experiment [5]; at Mu-type opioid receptor [6]) were 5.15 nM, 0.26 nM and 2.78 nM, respectively.
`CCCNC(=N)Cc1ccc2[nH]c3c(c2c1)C[C@@]1(O)C2Cc4ccc(O)c5c4[C@@]1(CCN2CC1CC1)[C@H]3O5`: the negative logarithm of the Ki (pKi) in experiment [1] is 8.28; at Mu-type opioid receptor [2], 7.87; in experiment [3], 8.80.
On to `CCC(=O)NCCc1ccc2[nH]c3c(c2c1)C[C@@]1(O)C2Cc4ccc(O)c5c4[C@@]1(CCN2CC1CC1)[C@H]3O5`, for which the figures for the pKi (in experiment [1]; on Mu-type opioid receptor [2]; in experiment [3]) were 8.51, 7.64 and 8.80, respectively. The Ke in experiment [4] is 0.38 nM; in experiment [5], 0.48 nM; on Mu-type opioid receptor [6] it was 4.94 nM.
With `CCNC(=O)NCCc1ccc2[nH]c3c(c2c1)C[C@@]1(O)C2Cc4ccc(O)c5c4[C@@]1(CCN2CC1CC1)[C@H]3O5`, the pKi in experiment [1] was 8.61; on Mu-type opioid receptor [2] it was 7.42; in experiment [3], 7.91. Moreover, the figures for the Ke (in experiment [4]; in experiment [5]; at Mu-type opioid receptor [6]) were 0.65 nM, 2.47 nM and 1.6 nM, respectively.
As to `CC(=N)NCCc1ccc2[nH]c3c(c2c1)C[C@@]1(O)C2Cc4ccc(O)c5c4[C@@]1(CCN2CC1CC1)[C@H]3O5`, the results for the pKi (in experiment [1]; at Mu-type opioid receptor [2]; in experiment [3]) were 7.67, 7.65 and 9.54, respectively. For the same compound, the Ke was found to be 1.79 nM in experiment [4], 0.21 nM in experiment [5] and 3.78 nM at Mu-type opioid receptor [6].
In the case of `CCCCCCC/N=C(\N)Cc1ccc2[nH]c3c(c2c1)C[C@@]1(O)C2Cc4ccc(O)c5c4[C@@]1(CCN2CC1CC1)[C@H]3O5`, the Ke in experiment [4] amounted to 5.83 nM; in experiment [5], 0.37 nM; on Mu-type opioid receptor [6] it was 2.04 nM.
As for `CCCCCNC(=N)Cc1ccc2[nH]c3c(c2c1)C[C@@]1(O)C2Cc4ccc(O)c5c4[C@@]1(CCN2CC1CC1)[C@H]3O5`, the values for the pKi (in experiment [1]; on Mu-type opioid receptor [2]; in experiment [3]) were 7.77, 7.60 and 8.84, respectively.
In the case of `CC(C)CC(=N)NCCc1ccc2[nH]c3c(c2c1)C[C@@]1(O)C2Cc4ccc(O)c5c4[C@@]1(CCN2CC1CC1)[C@H]3O5`, the pKi in experiment [1] was 7.70; at Mu-type opioid receptor [2], 7.32; in experiment [3] it was 8.86. In addition, the results for the Ke (in experiment [4]; in experiment [5]; at Mu-type opioid receptor [6]) were 5.23 nM, 0.32 nM and 14.7 nM, respectively.
In the case of `CCCC(=O)NCCc1ccc2[nH]c3c(c2c1)C[C@@]1(O)C2Cc4ccc(O)c5c4[C@@]1(CCN2CC1CC1)[C@H]3O5`, the pKi was 8.43 in experiment [1], 7.51 at Mu-type opioid receptor [2] and 9.07 in experiment [3]. The Ke in experiment [4] was determined as 0.3 nM; in experiment [5], 0.35 nM; at Mu-type opioid receptor [6] it was 3.17 nM.

A word on the pKi: it is the Ki on a negative log10 scale, so that one unit is a factor of ten.
